Where two headings read alike, the source gives them in different places.
Experiments:
[1] = amide bond, 13-membered ring, DMF
F508del = biological target: T1, F508del (Homo sapiens, UniProt P13569, DEL508-508); experiment: 3T3 assay: membrane potential optical assay for F508del correction; type: cell-based; details: Table 6, F508del NIH 3T3 cells; for Emax: NIH3T3, compared to lumacaftor in combination with acutely added 300 nM Ivacaftor, read-out: 3T3 Max Activity; for EC50: 18-24 hours at 37° C., forskolin, acutely added 300 nM Ivacaftor
T1 construct: expressed in transfected cells
Procedure, shortened: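 NIH 3T3 mouse fibroblasts stably expressing F508del incubated with corrector compounds across a concentration range for 16-24 hours at 37° C, then loaded with voltage-sensing redistribution dye. Response is FLIPR membrane potential change on forskolin activation with a chloride gradient (chloride-free gluconate bath, HEPES pH 7.4).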

[2] = amide bond, 13-membered ring
CFTR [3] = biological target: T2, CFTR (Homo sapiens, UniProt P13569); experiment: Membrane potential dye, Enteroid Assay A; type: cell-based; details: for Ent. A Max Activity: chloride transport as % of triple combination control (Enteroid Assay A); for EC50: human enteroid cells, 18-24 hours, acute 10 μM forskolin and 300 nM ivacaftor, read-out: Ent. A EC50
Procedure, shortened: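 Human intestinal enteroids incubated 18-24 h at 37 °C with test compound, then loaded with 20 μM methyl oxonol (with CaCC inhibitors). Chloride transport triggered in chloride-free buffer with 10 μM forskolin, 100 μM IBMX, 300 nM Compound III; fluorescence read 15 min, expressed as % of a triple-combination corrector/potentiator control.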

CFTR [4] = biological target: T2, CFTR; experiment: Membrane potential dye, Enteroid Assay B; type: cell-based; details: for EC50: read-out: Ent. B EC50; for Ent. B Max Activity: chloride transport as % of triple combination control (Enteroid Assay B)
Procedure, shortened: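 Human intestinal enteroids were treated with compound in maintenance medium for 18-24 h at 37° C, then loaded with methyl oxonol membrane-potential dye (25 min, room temperature). Chloride transport was triggered in chloride-free buffer with 10 μM forskolin, 100 μM IBMX and 300 nM Compound III, fluorescence read 15 min; expressed as % of triple-combination control.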

[5] = Table 8, human enteroid cells, 18-24 hours, acute 10 μM forskolin and 300 nM ivacaftor

T1 sequence (P13569 with tags, fused parts or gaps DEL508-508): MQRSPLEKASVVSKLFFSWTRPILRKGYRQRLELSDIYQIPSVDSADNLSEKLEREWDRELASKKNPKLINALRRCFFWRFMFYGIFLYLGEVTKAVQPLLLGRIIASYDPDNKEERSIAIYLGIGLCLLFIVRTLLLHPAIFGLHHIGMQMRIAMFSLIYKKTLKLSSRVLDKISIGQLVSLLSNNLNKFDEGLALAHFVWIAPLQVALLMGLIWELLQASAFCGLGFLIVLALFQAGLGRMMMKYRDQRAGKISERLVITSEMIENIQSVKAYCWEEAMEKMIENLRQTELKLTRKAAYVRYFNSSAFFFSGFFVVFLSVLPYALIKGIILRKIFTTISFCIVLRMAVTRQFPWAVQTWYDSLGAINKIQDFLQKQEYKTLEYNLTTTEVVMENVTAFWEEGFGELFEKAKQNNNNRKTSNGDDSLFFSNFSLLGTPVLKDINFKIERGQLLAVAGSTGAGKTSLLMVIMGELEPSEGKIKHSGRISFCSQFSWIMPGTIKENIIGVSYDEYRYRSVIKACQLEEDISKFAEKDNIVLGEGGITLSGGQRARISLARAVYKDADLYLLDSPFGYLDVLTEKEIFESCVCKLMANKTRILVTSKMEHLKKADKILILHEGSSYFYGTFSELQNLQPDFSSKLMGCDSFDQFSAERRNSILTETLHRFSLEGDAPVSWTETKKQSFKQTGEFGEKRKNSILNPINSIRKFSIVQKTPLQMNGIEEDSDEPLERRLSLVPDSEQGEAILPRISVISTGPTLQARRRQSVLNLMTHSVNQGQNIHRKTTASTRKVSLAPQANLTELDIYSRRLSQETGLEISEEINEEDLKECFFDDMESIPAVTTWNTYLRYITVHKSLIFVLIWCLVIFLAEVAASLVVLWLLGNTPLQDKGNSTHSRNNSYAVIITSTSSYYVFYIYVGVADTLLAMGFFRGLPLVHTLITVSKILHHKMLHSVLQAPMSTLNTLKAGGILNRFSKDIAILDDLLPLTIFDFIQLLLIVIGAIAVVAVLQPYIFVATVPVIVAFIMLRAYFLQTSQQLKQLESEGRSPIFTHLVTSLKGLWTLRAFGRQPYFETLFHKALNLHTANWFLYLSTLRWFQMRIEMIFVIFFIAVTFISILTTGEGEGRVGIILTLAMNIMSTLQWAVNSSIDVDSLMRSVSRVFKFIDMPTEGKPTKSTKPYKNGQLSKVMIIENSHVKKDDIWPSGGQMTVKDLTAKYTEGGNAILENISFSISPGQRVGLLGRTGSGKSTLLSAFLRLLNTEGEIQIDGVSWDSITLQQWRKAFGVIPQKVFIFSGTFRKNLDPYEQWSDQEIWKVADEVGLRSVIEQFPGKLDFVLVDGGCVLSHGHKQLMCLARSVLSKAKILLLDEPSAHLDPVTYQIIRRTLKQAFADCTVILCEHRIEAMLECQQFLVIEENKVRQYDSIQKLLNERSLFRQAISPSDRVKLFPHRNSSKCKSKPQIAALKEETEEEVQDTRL
T2 sequence (P13569 with tags, fused parts or gaps DEL508-508): as above

SMILES	Emax (F508del)	EC50 (F508del)	Ent. A Max Activity (CFTR [3]; Table 6)	EC50 (CFTR [3]; Table 6)	Ent. B Max Activity (CFTR [4]; Table 8)	EC50 (CFTR [4]; [5])	other results
CCC(C)(C)CC1COc2cc(-c3c(C)cccc3C)nc(n2)NS(=O)(=O)c2cccc(c2)C(=O)N1Cc1cncc(N(C)C2CCC2)n1 (stereo not drawn)	–	–	–	–	–	–	ring closure, isolated yield ([1]; from CCC(C)(C)CC(COc1cc(-c2c(C)cccc2C)nc(NS(=O)(=O)c2cccc(C(=O)O)c2)n1)NCc1cncc(N(C)C2CCC2)n1, CDMT/NMM, 19.5 mM, 16.2 h): 65%
COCN1c2nc(cc(-c3c(C)cccc3C)n2)OC[C@@H](CC(C)(C)C)NC(=O)c2cccc(c2)S1(=O)=O	–	–	–	–	–	–	ring closure, isolated yield ([1]; from COCN(c1nc(OC[C@H](N)CC(C)(C)C)cc(-c2c(C)cccc2C)n1)S(=O)(=O)c1cccc(C(=O)O)c1, HATU/DIEA, 107.6 mM, 0.33 h): 39%
Cc1cccc(C)c1-c1cc2nc(n1)NS(=O)(=O)c1cccc(c1)C(=O)N(C)[C@H](CC(C)C)[C@H](CC(C)C)O2 [Compound 2, (10S,11R)-6-(2,6-Dimethylphenyl)-12-methyl-10,11-bis(2-methylpropyl)-9-oxa-2λ^6-thia-3,5,12,19-tetraazatricyclo[12.3.1.14,8]nonadeca-1(18),4(19),5,7,14,16-hexaene-2,2,13-trione]	> 60%	< 1000 nM	+++ (+++ is >60%)	< 1000 nM	–	–	ring closure, yield after HPLC ([2]; from CN[C@H](CC(C)C)[C@H](CC(C)C)Oc1cc(-c2c(C)cccc2C)nc(NS(=O)(=O)c2cccc(C(=O)O)c2)n1, HATU/TEA, DMF, 18.8 mM, 15.0 h): 47%
Cc1cccc(C)c1-c1cc2nc(n1)NS(=O)(=O)c1cccc(c1)C(=O)N(CC(C)C)CCO2 [Compound 4, 6-(2,6-Dimethylphenyl)-12-isobutyl-2,2-dioxo-9-oxa-2λ^6-thia-3,5,12,19-tetrazatricyclo[12.3.1.14,8]nonadeca-1(18),4(19),5,7,14,16-hexaen-13-one]	> 60%	< 1000 nM	+++ (+++ is >60%)	< 1000 nM	–	–	ring closure, yield after HPLC ([2]; from Cc1cccc(C)c1-c1cc(OCCNCC(C)C)nc(NS(=O)(=O)c2cccc(C(=O)O)c2)n1, HATU/TEA, DMF, 91.6 mM, 0.5 h): 48%
Cc1cccc(C)c1-c1cc2nc(n1)NS(=O)(=O)c1cccc(c1)C(=O)N(CCC1(C(F)(F)F)CC1)[C@H](CC(C)C)CO2 [Compound 37, (11R)-6-(2,6-Dimethylphenyl)-11-(2-methylpropyl)-12-{2-[1-(trifluoromethyl)cyclopropyl]ethyl}-9-oxa-2λ^6-thia-3,5,12,19-tetraazatricyclo[12.3.1.14,8]nonadeca-1(17),4(19),5,7,14(18),15-hexaene-2,2,13-trione]	> 60%	< 1000 nM	+++ (+++ is >60%)	< 1000 nM	–	–	ring closure, yield after HPLC ([2]; from Cc1cccc(C)c1-c1cc(OC[C@@H](CC(C)C)NCCC2(C(F)(F)F)CC2)nc(NS(=O)(=O)c2cccc(C(=O)O)c2)n1, HATU/DIEA, DMF, 25.2 mM, 25.0 °C, 1.0 h): 37%
Cc1cccc(C)c1-c1cc2nc(n1)NS(=O)(=O)c1cccc(c1)C(=O)N(CC1CC3(CCOCC3)C1)[C@H](CC(C)C)CO2 [Compound 40, (11R)-6-(2,6-Dimethylphenyl)-11-isobutyl-12-(7-oxaspiro[3.5]nonan-2-ylmethyl)-2,2-dioxo-9-oxa-2λ^6-thia-3,5,12,19-tetrazatricyclo[12.3.1.14,8]nonadeca-1(18),4(19),5,7,14,16-hexaen-13-one]	> 60%	< 1000 nM	+++ (+++ is >60%)	< 1000 nM	–	–	ring closure, yield after HPLC ([2]; from Cc1cccc(C)c1-c1cc(OC[C@@H](CC(C)C)NCC2CC3(CCOCC3)C2)nc(NS(=O)(=O)c2cccc(C(=O)O)c2)n1, HATU/DIEA, DMF, 18.8 mM, 1.0 h): 63%
Cc1cccc(C)c1-c1cc2nc(n1)NS(=O)(=O)c1cccc(c1)C(=O)N(Cc1ccc(N3CCOCC3)cn1)[C@H](CC(C)(C)C)CO2 [Compound 48, (11R)-6-(2,6-Dimethylphenyl)-11-(2,2-dimethylpropyl)-12-[(5-morpholino-2-pyridyl)methyl]-2,2-dioxo-9-oxa-2λ^6-thia-3,5,12,19-tetrazatricyclo[12.3.1.14,8]nonadeca-1(18),4(19),5,7,14,16-hexaen-13-one]	–	–	–	–	–	–	Ent. B Max Activity (%) (CFTR [4]; Table 9): +++ (+++ is >600%); EC50 (CFTR [4]; Table 9): < 1000 nM; ring closure, yield after HPLC ([2]; from Cc1cccc(C)c1-c1cc(OC[C@@H](CC(C)(C)C)NCc2ccc(N3CCOCC3)cn2)nc(NS(=O)(=O)c2cccc(C(=O)O)c2)n1, CDMT/NMM, DMF, 16.9 mM, 25.0 °C, 2.33 h, 2 steps): 22%
Cc1cccc(C)c1-c1cc2nc(n1)NS(=O)(=O)c1cccc(n1)C(=O)N(Cc1ncccn1)[C@H](CC(C)(C)C)CO2 [Compound 75, (11R)-6-(2,6-dimethylphenyl)-11-(2,2-dimethylpropyl)-12-[(pyrimidin-2-yl)methyl]-9-oxa-2λ^6-thia-3,5,12,18,19-pentaazatricyclo[12.3.1.14,8]nonadeca-1(18),4(19),5,7,14,16-hexaene-2,2,13-trione]	–	–	–	–	+++ (+++ is >60%)	< 1000 nM	ring closure, yield after HPLC ([2]; from Cc1cccc(C)c1-c1cc(OC[C@@H](CC(C)(C)C)NCc2ncccn2)nc(NS(=O)(=O)c2cccc(C(=O)O)n2)n1, HATU/DIEA, DMF, 30.5 mM, 25.0 °C, 0.5 h): 46%
COCCCCN1C(=O)c2cccc(c2)S(=O)(=O)Nc2nc(cc(-c3c(C)cccc3C)n2)OC[C@H]1CC(C)C [Compound 84, (11R)-6-(2,6-dimethylphenyl)-11-isobutyl-12-(4-methoxybutyl)-2,2-dioxo-9-oxa-2λ^6-thia-3,5,12,19-tetrazatricyclo[12.3.1.14,8]nonadeca-1(18),4(19),5,7,14,16-hexaen-13-one]	–	–	–	–	–	–	Ent. B Max Activity (CFTR [4]; Table 7): +++ (+++ is >60%); EC50 (CFTR [4]; Table 7, human enteroid cells, 18-24 hours, acute 10 μM forskolin and 300 nM ivacaftor): < 1000 nM; ring closure, yield after HPLC ([2]; from COCCCCN[C@@H](COc1cc(-c2c(C)cccc2C)nc(NS(=O)(=O)c2cccc(C(=O)O)c2)n1)CC(C)C, NaOtBu then HATU, THF, 98.4 mM, 25.0 °C, 1.0 h, 2 steps): 9%; Ent. A Max Activity (CFTR [3]; Table 7): +++ (+++ is >60%); EC50 (CFTR [3]; Table 7): < 1000 nM
Cc1cccc(C)c1-c1cc2nc(n1)NS(=O)(=O)c1cccc(c1)C(=O)N(Cc1ncccn1)[C@H](CC(C)(C)C)CO2 [Compound 113, (11R)-6-(2,6-Dimethylphenyl)-11-(2,2-dimethylpropyl)-12-[(pyrimidin-2-yl)methyl]-9-oxa-2λ^6-thia-3,5,12,19-tetraazatricyclo[12.3.1.14,8]nonadeca-1(17),4(19),5,7,14(18),15-hexaene-2,2,13-trione]	–	–	–	–	+++ (+++ is >60%)	< 1000 nM	ring closure, yield after HPLC ([2]; from Cc1cccc(C)c1-c1cc(OC[C@@H](CC(C)(C)C)NCc2ncccn2)nc(NS(=O)(=O)c2cccc(C(=O)O)c2)n1, COMU/DIEA, DMF, 28.1 mM, 25.0 °C, 6.0 h): 33%
Cc1cccc(C)c1-c1cc2nc(n1)NS(=O)(=O)c1cccc(c1)C(=O)N(Cc1cccnn1)[C@H](CC(C)(C)C)CO2 [Compound 135, (11R)-6-(2,6-dimethylphenyl)-11-(2,2-dimethylpropyl)-12-[(pyridazin-3-yl)methyl]-9-oxa-2λ^6-thia-3,5,12,19-tetraazatricyclo[12.3.1.14,8]nonadeca-1(18),4,6,8(19),14,16-hexaene-2,2,13-trione]	–	–	–	–	+++ (+++ is >60%)	< 1000 nM	ring closure, yield after HPLC ([2]; from Cc1cccc(C)c1-c1cc(OC[C@@H](CC(C)(C)C)NCc2cccnn2)nc(NS(=O)(=O)c2cccc(C(=O)O)c2)n1, COMU/DIEA, DMF, 40.7 mM, 16.0 h): 22%
Cc1cccc(C)c1-c1cc2nc(n1)NS(=O)(=O)c1cccc(c1)C(=O)N(Cc1cnc(N)nc1)[C@H](CC(C)(C)C)CO2 [Compound 136, (11R)-12-[(2-Aminopyrimidin-5-yl)methyl]-6-(2,6-dimethylphenyl)-11-(2,2-dimethylpropyl)-9-oxa-2λ^6-thia-3,5,12,19-tetraazatricyclo[12.3.1.14,8]nonadeca-1(18),4,6,8(19),14,16-hexaene-2,2,13-trione]	–	–	–	–	+++ (+++ is >60%)	< 1000 nM	ring closure, yield after HPLC ([2]; from Cc1cccc(C)c1-c1cc(OC[C@@H](CC(C)(C)C)NCc2cnc(N)nc2)nc(NS(=O)(=O)c2cccc(C(=O)O)c2)n1, COMU/DIEA, DMF, 29.3 mM, 5.0 h): 33%
COC(=O)c1ccc(CCN2C(=O)c3cccc(c3)S(=O)(=O)Nc3nc(cc(-c4c(C)cccc4C)n3)OC[C@H]2CC(C)(C)C)cc1 [Compound 1081]	–	–	–	–	–	–	Ent. B Max Activity (%) (CFTR [4]; Table 9): +++ (+++ is >600%); EC50 (CFTR [4]; Table 9): < 1000 nM; ring closure, yield after HPLC ([2]; from COC(=O)c1ccc(CCN[C@@H](COc2cc(-c3c(C)cccc3C)nc(NS(=O)(=O)c3cccc(C(=O)O)c3)n2)CC(C)(C)C)cc1, HATU/DIEA, DMF, 25.0 °C, 16.0 h, 2 steps): 23%

Source: US20240150377A1, “MODULATORS OF CYSTIC FIBROSIS TRANSMEMBRANE CONDUCTANCE REGULATOR” (VERTEX PHARMACEUTICALS INCORPORATED, priority 2020, published 2024)
